{
  "source": "patent US11351260B2",
  "about": "“Photocleavable cobalt-nitrosyl complex and nitric oxide carrier containing the same” (DAEGU GYEONGBUK INSTITUTE OF SCIENCE AND TECHNOLOGY, priority 2019, dated 2022)",
  "test_system": "EGFR",
  "assay": "EGFR single-particle tracking and diffusion analysis (dark-field, anti-EGFR-AuNP)",
  "type": "cell-based",
  "details": "ERK-KTR cells; NOExo treatment (complex of Example 1 + hν) or EGF treatment; untreated control 0.071",
  "description": "To confirm whether the activation of ERK by NO generated from the complex of Example 1 was induced by other receptors or membrane features, thus perturbing other signaling pathways, such as the MAPK pathway activated by the […] of EGF receptors (EGFRs) or by nonspecific disturbances caused by the formation of cellular membranes like lipid rafts, individual EGFRs in live cells were tracked, and analyzed.\nTime-lapse dark-field microscope images were taken every 20 ms for 10 s. Lateral diffusion motion of protein was analyzed by particle trajectories. TrackMate plugin on Image J was used for single-particle tracking and trajectory analysis. For each particle, mean square displacement (MSD) was calculated from the x, y position and time information obtained from trajectory analysis; MSD(t)=<(xi+n−xi)^2+(yi+n−yi)^2>. The MSD versus time intervals were plotted up to the time lag (t) equivalent to 1/10th of the trajectory duration, then fitted to a linear equation corresponding to the Brownian motion. Diffusion coefficient (D) was calculated from the slope of the first ten points of the MSD plot; MSD=4Dt.\nFor single-molecule tracking of EGFR, anti-EGFR (EGFR anti-bodies) was conjugated to gold nanoparticles (AuNPs, 50 nm in diameter) using the biotin-neutravidin interaction (FIG. 8A), achieving high specificity (FIG. 8B). […]",
  "data": [
    {"substance": "epidermal growth factor [EGF, reference compound]", "values": [
      {"measurement": "diffusion coefficient of EGFR (DEGFR)", "value": 0.017, "unit": "μm^2 s^−1"}
    ]}
  ]
}
